Key:
MDAH-2774 [1] = test: XTT cell proliferation assay (cytotoxicity); format: cell-based, human; settings: Homo sapiens
Experimental: (§1) Cells were seeded at 7×10^3 per well in 96-well culture plates before treatment with different concentrations of protoapigenone for 12, 24 and/or 48 hours. Next, the cytotoxicity of protoapigenone was determined using XTT cell proliferation assay (Sigma, St. Louis, Mo.). The absorbance of wavelength at 490 nm (OD490) and 650 nm (OD650) were determined respectively by enzyme-linked immunosorbent assay (ELISA) reader, and 50% of inhibitory concentration (IC50) was calculated by the value of OD490-OD650. In addition, in order to evaluate the long-term effect, the cells were treated with different concentration of protoapigenone for 3 hours, then were incubated with fresh medium for 14 days so as to form colonies. Finally, the cells were stained with crystal violet and were observed under the microscope.

[2] = system: MDAH-2774 human ovarian cancer cells; test: Nude mice xenograft model, tumor growth; format: in vivo; settings: low dose (0.069 μM/g) and high dose (0.69 μM/g) i.p. every other day, 7-week treatment
Experimental: MDAH-2774 human ovarian cancer cells of 2×10^6 (or LNCap prostate cancer cells of 1×10^6) in 0.1 ml PBS were injected subcutaneously at the right flank of 6-week-old female nude mice (Foxnlun/Foxulun). When tumors became visible (approximately 3×3 mm in size), the mice were randomly grouped and treated intraperitoneally with protoapigenone or vehicle every other day. […] Tumor size and body weight were measured twice a week using calipers, and their tumor volumes were calculated according to a standard formula: width^2×length/2. After treatment with protoapigenone for 5 weeks, the mice xenografted with LNCap cells were sacrificed by deep anesthesia, and the blood sampling by cardiac aspiration was done immediately after anesthesia. Complete blood count of the nude mice blood was determined by Sysmex XE-2100 (TOA Medical Electronics, Kobe, Japan), and the plasma blood urea nitrogen (BUN), creatine (Cr), asparatate aminotransferase (AST), and alanine aminotransferase (ALT) levels were determined by Beckman LX20 (Beckman-Coulter, U.S.A.)

SKOV3 [3] = test: Annexin V apoptosis assay; format: cell-based, human; settings: SKOV3, 10 μM, 3 hours
Experimental: (§2) The theory of this assay is to detect early apoptotic cells during the apoptotic progression. The ovarian cancer cells and the prostate cancer cells respectively were incubated with protoapigenone at 10 μM for 3 hours on chamber slides, washed with cold PBS twice and stained with a binding buffer containing annexin V-fluorescein isothiocyanate (FITC) (1 mg/ml; Strong Biotech, Taipei, Taiwan) and 4,6-diamidino-2-phenylinodole (Sigma-Aldrich) at 25° C. for 15 minutes. The stained cells were washed with PBS twice and observed under the fluorescent microscope.

MDAH-2774 [4] = test: Annexin V apoptosis assay; format: cell-based, human; settings: MDAH-2774, 10 μM, 3 hours
Experimental: as §2

LNCap cells = test: Annexin V apoptosis assay; format: cell-based, human; settings: 10 μM, 3 hours
Experimental: as §2

MDAH-2774 [5] = test: Clonogenic assay (colony formation); format: cell-based, human; settings: 3 hours treatment, 14 days in fresh medium
Experimental: as §1

SKOV3 [6] = test: Cell cycle and sub-G1 analysis (PI flow cytometry); format: cell-based, human; settings: SKOV3, 24 hours
Experimental: (§3) The ovarian cancer cells and the prostate cancer cells respectively were treated with protoapigenone at different concentrations (0, 2.5, 5 and 10 μM) for 24 hours and 6 hours (or 12 hours). These cells were harvested by trypsin and fixed with 70% ethanol for 1 hour, washed with phosphate buffered saline (PBS) twice, and resuspended in propidium iodide (PI)/RNase A solution for 30 minutes. In accordance with the mechanism of DNA stained with propidium iodide, the cell cycle and sub-G1 distribution were detected by the FACScan flow cytometry (Becton Dickinson, San Jose, Calif.), and data analysis was done with CellQuest software (BD Bioscience).

MDAH-2774 [7] = test: Cell cycle and sub-G1 analysis (PI flow cytometry); format: cell-based, human; settings: MDAH-2774, 24 hours
Experimental: as §3

p38 MAPK = test: Immunoblotting, phosphorylation in LNCap cells; format: cell-based, human; settings: LNCap, exposure for 1 hour
Text: (§4) The concentration of protein supernatant was further determined using the Bio-Rad protein assay kit (Bio-Rad Laboratories, Hercules, Calif.). Whole cell lysates were separated on polyacrylamide sodium dodecyl sulfate (SDS) gels and the proteins were transferred onto the nitrocellulose membrane. Proteins were detected sequentially by the specific primary antibodies, followed by peroxidase-conjugated secondary antibodies, and visualized by the Enhanced chemiluminescence detection system (Amersham, N.J.).

JNK½ = test: Immunoblotting, phosphorylation in LNCap cells; format: cell-based, human; settings: exposure for 1 hour
Text: as §4

[8] = Body weight, complete blood count and biochemical profile of MDAH-2774-xenografted nude mice; format: in vivo; settings: for Creatine / Got (glutamic-oxaloacetic transaminase) / Gpt (glutamic-pyruvic transaminase) / HCT (hematocrit) / MCV (mean corpuscular volume) / PLT / RBC / WBC / Body weight: MDAH-2774 xenograft

Compound: O=C1C=CC(O)(c2cc(=O)c3c(O)cc(O)cc3o2)C=C1 [protoapigenone]
- inhibition at 1 µM (MDAH-2774 [1]; MDAH-2774, 1 μM protoapigenone, read-out: inhibition of cell growth): 25%
- inhibition at 2.5 µM (MDAH-2774 [1]; MDAH-2774, 2.5 μM protoapigenone, read-out: inhibition of cell growth): 53.4%
- IC50 (MDAH-2774 [1]; ovarian cancer cell line MDAH-2774, means ± SD of three independent experiments): 690 ± 920 nM
- tumor growth of MDAH-2774 cells vs PBS control [2]: significantly suppressed
- cell apoptosis (annexin V-FITC) (SKOV3 [3]): 34.2%
- cell apoptosis (annexin V-FITC) (MDAH-2774 [4]): 24.5%
- ratio of annexin V-FITC positive cells (LNCap cells): 24.2±1.3%
- ratio of colony formation (MDAH-2774 [5]): decrease along with the increased protoapigenone concentrations
- apoptotic sub-G1 peak (SKOV3 [6]): increases the apoptotic sub-G1 peak
- cell cycle distribution (SKOV3 [6]; various concentrations): enter into S and G2/M phases
- apoptotic sub-G1 peak (MDAH-2774 [7]): increases the apoptotic sub-G1 peak
- cell cycle distribution (MDAH-2774 [7]; various concentrations): enter into S and G2/M phases
- phosphorylation of p38 MAPK (p38 MAPK): dramatic increase
- phosphorylation of JNK½ (JNK½): dramatic increase
- impairment of hematopoiesis, liver function, or renal function ([8]; MDAH-2774-xenografted nude mice, intraperitoneal injection, 7 weeks): no significant impairment
- Creatine ([8]; high dose, 7 weeks): 0.5 ± 0.0 mg/dL
- Got (glutamic-oxaloacetic transaminase) ([8]; high dose, 7 weeks): 148.2 ± 59.3 U/L
- Gpt (glutamic-pyruvic transaminase) ([8]; high dose, 7 weeks): 52.0 ± 17.6 U/L
- HCT (hematocrit) ([8]; high dose, 7 weeks): 46.1 ± 1.8%
- MCV (mean corpuscular volume) ([8]; high dose, 7 weeks): 50.9 ± 0.9 fL
- PLT ([8]; high dose, 7 weeks): 916.3 ± 100.5 10 × 3/μl
- RBC ([8]; high dose, 7 weeks): 9.1 ± 0.3 10^6/µL
- WBC ([8]; high dose, 7 weeks): 2.0 ± 0.9 10 × 3/μl
- Body weight ([8]; high dose, after treatment (7 weeks)): 19.8 ± 1.1 g
- Body weight ([8]; high dose, before treatment): 19.6 ± 0.8 g
- Creatine ([8]; low dose, 7 weeks): 0.5 ± 0.0 mg/dL
- Got (glutamic-oxaloacetic transaminase) ([8]; low dose, 7 weeks): 119.5 ± 45.5 U/L
- Gpt (glutamic-pyruvic transaminase) ([8]; low dose, 7 weeks): 46.3 ± 16.7 U/L
- HCT (hematocrit) ([8]; low dose, 7 weeks): 43.5 ± 3.6%
- MCV (mean corpuscular volume) ([8]; low dose, 7 weeks): 56.2 ± 8.9 fL
- PLT ([8]; low dose, 7 weeks): 1094.5 ± 124.9 10 × 3/μl
- RBC ([8]; low dose, 7 weeks): 7.8 ± 1.4 10^6/µL
- WBC ([8]; low dose, 7 weeks): 2.6 ± 1.2 10 × 3/μl
- Body weight ([8]; low dose, after treatment (7 weeks)): 19.4 ± 0.1 g
- Body weight ([8]; low dose, before treatment): 19.6 ± 0.6 g

From patent US20100062078A1, “PHARMACEUTICAL COMPOSITION FOR TREATING CANCER AND THE SIGNALING PATHWAY THEREOF” (priority 2008, published 2010)
